Laboratory results published in patent US9604931B2, “Nuclear receptor binding agents” (GTx, Inc., priority 2007, dated 2017).
Entries after “also recorded” stand apart in the source; their conditions may differ.

Key:
[1] = system: high fat diet induced obesity in already obese mice; test: High fat diet induced obesity, treatment study (study 3); type: in vivo, C57BL6 male mice
Experimental: For the treatment obesity study (where the animals were fed with high fat diet for six weeks prior to beginning drug treatment for 18 weeks), MRI scans were performed at weeks 0, 6, 12, 18 and 24.
As the first two studies were designed to prevent obesity (i.e. animals were fed with a high fat diet and treated simultaneously), a subsequent study was conducted to evaluate the ability of 12u to affect body composition in mice that were already fed with the high fat diet and were obese. Mice were divided into three groups with one group fed with normal diet (control) and the other two groups fed with the high fat diet for 6 weeks. […] All the animals were maintained in their respective diets during the entire course of the study.

[2] = system: Ang II induced hypertension; test: Angiotensin II model, blood pressure; type: in vivo, ovariectomized C57/BJ6 and ERβKO mice; parameters: Systolic pressure / Diastolic pressure: unit: mmHg; conditions: for Diastolic pressure / Systolic pressure: Ang II
Experimental: (§1) Thirty, ten week old female ovariectomized C57/BJ6 mice, were obtained from Harlan/Sprague Dawley and were housed in 12 hour on/off lighting and fed rodent chow devoid of soy or most plant products. Ovariectomized ERβ gene-deleted (ERβKO or ERβ-KO) mice were obtained from Ken Korach, NIEHS. The ERβ mice were originally created by Drs. Smithies, Gustafsson, and colleagues. All mice were identically housed and fed the same chow.
(§2) This pellet is well documented to produce physiological levels of E2 in the serum of mice.
Blood pressure was measured 4 times during the 21-day period, using the CODA non-invasive blood pressure measuring system (Kent Scientific, Torrington, Conn.). Measurements were done by volume pressure recordings of the tail.

[3] = system: LNCaP cells and human prostate stromal cells xenograft; test: LNCaP-stromal cell xenograft tumor growth; type: in vivo, nude mice; conditions: 30 mg/kg/day for 21 days
Experimental: Prostate tumor xenografts were established with LNCaP cells and human prostate stromal cells in nude mice to establish the in vivo anti-proliferative effects of these ER-β NRBAs. A 4:1 ratio (based on cell number) of LNCaP:stroma cells was injected subcutaneously in nude mice and allowed to grow until they attained 100 mm^3 in volume, as measured by calipers. […] Tumor volumes were measured twice a week and percent tumor volume calculated, after 10, 14 and 21 days.

[4] = system: Ang II induced left ventricular hypertrophy; test: Angiotensin II model, cardiac hypertrophy; type: in vivo, ovariectomized C57/BJ6 and ERβKO mice; conditions: 21 days
Experimental: as §1, with “ERβKO” for “ERβ gene-deleted (ERβKO or ERβ-KO)”
as §2
At inception and after 21 days, the mice were weighed. Blood pressure was measured 4 times during the 21-day period, using the CODA non-invasive blood pressure measuring system. At 21 days the hearts were stopped in diastole by CdCl2 administration. The hearts were removed and weighed and the ratio of heart per total body weight was determined. Next, the hearts were dissected and the left ventricles were weighed and the ratio of left ventricle per total body weight was determined. […] For comparison ERβ gene-deleted mice were subjected to the same conditions of Ang II±E2 or the 12u compound. For histology, the hearts were and sectioned, and stained with hematoxylin and eosin, or Masson stain (for collagen)

O=c1c2c(O)cc(O)cc2c(Br)cn1-c1ccc(O)cc1 [12u, 4-bromo-6,8-dihydroxy-2-(4-hydroxyphenyl)isoquinolin-1(2H)-one]
Body weight versus normal diet control mice ([1]; by week 16): not significantly different from normal diet control mice
Body fat increase (MRI) ([1]; obese mice, 30 mg/kg/day s.c.): reduced
Body weight gain after start of treatment ([1]; obese mice, 30 mg/kg/day s.c. from week 6): prevented further gains in body weight
Ang II induced hypertension, diastolic pressure ([2]; ERβ-KO mice, 21 days): unchanged
Ang II induced hypertension, systolic pressure ([2]; ERβ-KO mice, 21 days): mildly reduced
Diastolic pressure ([2]; ERβKO, 7 days): 98
Systolic pressure ([2]; ERβKO, 7 days): 143
Diastolic pressure ([2]; ERβKO, 14 days): 98
Systolic pressure ([2]; ERβKO, 14 days): 147
Diastolic pressure ([2]; ERβKO, 21 days): 96
Systolic pressure ([2]; ERβKO, 21 days): 146
Diastolic pressure ([2]; ERβKO, time 0): 87
Systolic pressure ([2]; ERβKO, time 0): 123
Diastolic pressure ([2]; WT, 7 days): 88
Systolic pressure ([2]; WT, 7 days): 120
Diastolic pressure ([2]; WT, 14 days): 87
Systolic pressure ([2]; WT, 14 days): 125
Diastolic pressure ([2]; WT, 21 days): 86
Systolic pressure ([2]; WT, 21 days): 130
Diastolic pressure ([2]; WT, time 0): 85
Systolic pressure ([2]; WT, time 0): 120
Ang II induced hypertension ([2]; wildtype mice, 21 days): largely prevented; also recorded: prevented Ang II induced cardiac hypertension
Xenograft tumor growth [3]: inhibited the growth of tumor significantly
Ang II induced increase in heart size and total heart weight [4]: prevented the increased size
Ang II induced left ventricular hypertrophy (LVW/BW) ([4]; wildtype but not ERβKO mice): largely prevented; also recorded: prevented Ang II induced cardiac hypertrophy and increased heart size
